From US6989364B1, “Methods for treating cardiac hypertrophy by administering IFN-γ” (Genentech, Inc., priority 1998, dated 2006)
Marks after values point to notes of the source that are not given here.

Columns and labels:
[1] = test system: rats with pressure overload; experiment: Arterial pressure and heart rate in rats with pressure overload; assay type: in vivo, rat
Description: FIGS. 9A–9C Effects of IFN-γ on systolic arterial pressure, mean arterial pressure, and diastolic arterial pressure in rats with pressure overload. The number in parenthesis is the number of animals in each group. **P<0.01, compared to the sham group. Sham: sham-operated rats; Banded: aortic-banded rats; IFN: IFN-γ, SAP: systolic arterial pressure; MAP: mean arterial pressure; DAP: diastolic arterial pressure.
Experimental protocol in rats with pressure overload The rats with aortic banding randomly received subcutaneous injection of IFN-γ at 0.08 mg/k twice a day for one day before surgery and for 14 days after surgery. Sham animals were not treated. Thirteen days after treatment, a catheter was implanted into the right carotid artery under anesthesia as indicated above. One day after implantation, arterial pressure and HR were measured in conscious rats. The heart and other organs including the liver, kidney, and spleen were removed, weighed, and fixed in 10% buffered formalin for pathological studies. The left ventricle was quickly dissected and frozen with liquid nitrogen in some animals and stored at −80° C. for assessment of gene expression.

[2] = test system: left ventricle of male Sprague/Dawley (SD) rats; experiment: Cardiac gene expression (real-time RT-PCR) in rats treated with fluprostenol and/or IFN-γ; assay type: in vivo, rat; details: SKA, SRCA, COL I, ANF; FIG. 6
Description: FIGS. 6A–6D Bargraphs showing the effect of fluprostenol (FLUP) and IFN-γ on: A Skeletal actin (SKA); B Sarcoplasmic reticulum calcium ATPase (SRCA); C Collagen I (COL I); D Atrial natriuretic factor (ANF) expression. Expression levels are normalized to glyceraldehyde-3-phosphate dehydrogenase (GAPDH) message. VEH is vehicle. There were 7 animals per group and the data are presented as the mean±SEM. P<0.05 vs VEH group.
RNA preparation Total RNA was isolated using RNeasy Maxi Columns (Qïägen) according to the manufacturer's instructions.
RT-PCR Real-time RT-PCR (TaqMan) technology was used to compare the gene expression between the various treatment groups. An oligonucleotide probe containing a fluorescent reporter dye, […], at the 3′-end was designed to hybridize to the amplicon defined by two PCR primers. A 3′-blocking phosphate prevents extension of the probe. The reporter dye is released from the probe by the 5′ exonuclease activity of Taq polymerase during the extension phase of PCR reaction. […] The threshold cycle number (Ct), defined as the point where the reporter fluorescence reaches a value greater than 10 times the standard deviation of the baseline, is […] to the amount of amplicon produced from the sample. Since the fluorescence is detected during the exponential phase of the amplification, none of the reaction components are limiting. In each experiment, a control is analyzed that lacks the RNA template to monitor for contamination, and another control is included where the RT step is omitted to eliminate amplification of possible contaminating DNA as the source of the signal. Reactions are optimized to give the greatest fluorescence signal and smallest Ct by titration of magnesium and primer concentrations, and the product is run on an agarose gel to verify the presence of a single band at the predicted molecular weight. […]
Quantitation of the TaqMan results was performed as described by Heid et al., Genome Res. 6:986–994 (1996), with modifications. […]

IFN-γ: recombinant mouse IFN-γ (Genentech, Inc., South San Francisco, Calif., or Genzyme, Cambridge, Mass.)
Incremental increase in arterial pressure (MAP, systolic, diastolic) in banded rats, IFN-γ vs vehicle ([1]; FIG. 9): not different | HR, heart rate ([1]; pressure overload, conscious rats, IFN-γ 0.08 mg/kg s.c. twice a day, mean ± SEM): 418 ± 19* bpm | Inhibition of alterations in cardiac gene expression associated with fluprostenol induced hypertrophy [2]: inhibited all but the atrial natriuretic factor response
